Measurements as given in patent publication US20130156932A1, “Method of increasing the milk and/or meat quantity of silage-fed animals” (BASF SE, priority 2007, published 2013).

Tests used:
Assay type in all cases: in vivo, Zea mays (maize)
[1] = tested on: corn; experiment: Corn silage strip trials Maryland 2006: NIRS forage quality and MILK 2006 calculated milk production
Procedure: (§1) Field trials were conducted as strip trials in farm fields in 2006 and 2008. A part of the field was treated with pyraclostrobin applied as Headline® whereas another part was left untreated. Headline® was applied at tassel emergence with 0.44 L/ha (110 g pyraclostrobin per ha) by aerial or ground application with a high clearance sprayer. Total spray volume was 93.5 to 187 L/ha for ground application and 18.7 to 46.7 L/ha for aerial application, respectively. Water was used as a carrier to prepare the spray mixture.
(§2) Trials were harvested using a commercial forage harvester when the corn crop reached a dry matter content of about 30 to 40%. The treated and untreated area of the field was harvested separately to gain total biomass yield (ton/acre). Subsequently, the harvested plant material was used for producing silage.
(§3) Forage samples from the harvested plants were taken from both the treated and untreated areas of the field. Samples were taken from the harvested material in the forage wagon following chopping with the commercial harvester. Multiple forage samples were taken for each of both treatments manually during harvesting in each of the trials, mixed in a larger container, and a subsample of 1.3 to 2.25 kg was taken. The subsamples were placed in plastic bags, sealed, cooled, and shipped immediately to Agsource Soil and Forage Laboratory, 106 North Cecil Street, Bonduel Wis. 54107, USA for Near Infrared Reflectance Spectroscopy (NIRS) analysis.
(§4) Typically, samples for NIRS analysis are first dried at 55 to 65° C. for 24 h to 48 h prior to analysis. A representative subsample thereof is then dried at 105° C. for another 12 h to 24 h to evaluate the dry matter content of the samples. Subsequently, the remaining sample is grinded and homogenized and again a representative subsample is used for the NIRS analysis. The NIRS analysis procedure uses a commercially available calibration to estimate the values for each quality parameter based on the spectral reflectance information gained. The calibrations are based on the near infra red reflectance spectra of samples with known quality data. The comparison of the spectra of the samples with unknown quality data with the spectra of the known samples allows calculating estimates for each quality parameter of interest.
NIRS analysis provided dry matter, crude protein, Acid Detergent Fibre (ADF), Neutral Detergent Fibre (NDF), and starch data. Calculations were included for moisture, adjusted crude protein, Total Digestible Nutrients (TDN), Net Energy for Lactation (NEL), Net Energy for Gain (NEG) and protein solubility.
The information was then entered into the MILK 2006 University of Wisconsin Corn Silage evaluation system. Calculations of the milk production, energy content and digestibility per ton of corn biomass were carried out using a calculation method described in:
a) Schwab, E. C., and R. D. Shaver. 2001: “Evaluation of corn silage nutritive value using MILK2000” (pages 21-24) in Proc. of 25th Forage Production and Use Symposium. WI Forage Council Annual Mtg. Eau Claire, Wis.
b) Schwab, E. C., R. D. Shaver. J. G. Lauer, and J. G. Coors. 2003: “Estimating silage energy value and milk yield to rank corn hybrids”. J. Anim. Feed Sci. Technol. 109: 1-18. as well as in
c) Undersander, D. J., W. T. Howard, and R. D. Shaver. 1993: “Milk per acre spreadsheet for combining yield and quality into a single term”. J. Prod. Ag. 6: 231 235.
In 2006 a total of 16 strip trials were conducted in Queen Ann County, Md. Trial setup, treatments, application, harvesting, sampling and quality analysis including calculation of milk production per ton and per acre followed the procedure described before.

[2] = tested on: corn; experiment: Corn silage strip trials Wisconsin 2006: NIRS forage quality and MILK 2006 calculated milk production
Procedure: as §1, §2, §3
as §4, with “The calibrations are based on the near infra red reflectance spectra of samples with known quality data. The comparison of the spectra of the samples with unknown quality data with the spectra of the known samples allows calculating estimates for each quality parameter of interest.” left out

[3] = tested on: corn; experiment: Corn silage strip trials New York 2006: NIRS forage quality and MILK 2006 calculated milk production; settings: New York 2006, pyraclostrobin vs untreated
Procedure: as §1, §2
as §3, with “54107, USA for Near Infrared Reflectance Spectroscopy (NIRS) analysis.” left out

[4] = tested on: corn hybrid varieties; experiment: Field trial Wisconsin 2008 with eight corn hybrids: calculated milk production per ton of harvested biomass
Procedure: as §1, §2
as §3, with “54107, USA for Near Infrared Reflectance Spectroscopy (NIRS) analysis.” left out

[5] = Maryland 2006, pyraclostrobin vs untreated
[6] = Wisconsin 2006, pyraclostrobin vs untreated

## COC(=O)N(OC)c1ccccc1COc1ccn(-c2ccc(Cl)cc2)n1 [Pyraclostrobin, pyraclostrobin]
[1]; Maryland 2006, average of 16 strip trials, 110 g pyraclostrobin per ha
  total digestible nutrients as percent of dry matter (TDN % of DM): 70.0 % of DM
[1]; Maryland 2006, average of 16 strip trials, Headline at tassel emergence, 110 g pyraclostrobin per ha
  crude protein content (% CP): 7.1%
[1]; [5]
  % CP, % Difference to Untreated: +6.0%
  % NDF, % Difference to Untreated: −4.8%
  % NDFD, % Difference to Untreated: +3.9%
  Milk (kg/t), % Difference to Untreated: +5.9%
  TDN % of DM, % Difference to Untreated: +3.6%
[2]; Wisconsin 2006, average of 7 strip trials, 110 g pyraclostrobin per ha
  crude protein content (% CP): 7.5%
[2]; [6]
  % CP, % Difference to Untreated: +4.2%
  Milk (kg/t), % Difference to Untreated: +14.0%
[3]
  % CP, % Difference to Untreated: +6.0%
  % Dry Matter, % Difference to Untreated: −2.2%
[4]; Example 4.6, hybrid DS93VT3, Wisconsin 2008
  Calculated milk production, Milk (kg/t): 1600 kg/t
[4]; across the eight tested different corn hybrids, result in words
  milk production per ton of harvested corn biomass used to produce silage: improves the milk production
